Measurements reported in PubChem BioAssay AID286 (DTP/NCI, 2004).
Several values for one entry are separate records, joined by “and”; a condition that tells them apart may be missing. Equal entries are not always repeated. Toxic doses and inconclusive results are not listed.

Test system: BDF1 mice, M5076 sarcoma ip, median survival T/C
Test: NCI In Vivo Anticancer Drug Screen. Data for tumor model Sarcoma M5076 (intraperitoneal) in B6D2F1 (BDF1) mice
Details: endpoint: median survival time, higher = longer survival
Protocol: The antitumor activity of compounds was measured in mice bearing transplantable tumors. Survival or tumor size were measured and the results are expressed as the measurement made in the treated group (T) divided by the measurement made in the vehicle treated control group (C). The tumor model used in this assay is Sarcoma M5076 (intraperitoneal) in B6D2F1 (BDF1) mice

[1] = dose: 0.5 mg/kg/injection, schedule: Q04DX005 (ip), vehicle: saline
[2] = dose: 1.0 mg/kg/injection, schedule: Q04DX005 (ip), vehicle: saline

O=C(O)C1(C(=O)O)CCC1.[NH2-].[NH2-].[Pt+2]
T/C (dose: 15.6 mg/kg/injection, schedule: Q04DX005 (ip), vehicle: water): 186 % of control | T/C (dose: 25.92 mg/kg/injection, schedule: Q04DX005 (ip), vehicle: water): 182 % of control | T/C (dose: 43.2 mg/kg/injection, schedule: Q04DX005 (ip), vehicle: water): 194 % of control | T/C (dose: 72.0 mg/kg/injection, schedule: Q04DX005 (ip), vehicle: water): 220 % of control | T/C (dose: 120.0 mg/kg/injection, schedule: Q04DX005 (ip), vehicle: water): 275 % of control

CN(C)c1nc(N(C)C)nc(N(C)C)n1
T/C (dose: 40.0 mg/kg/injection, schedule: Q04DX005 (ip), vehicle: Klucel (hydroxypropylcellulose) (HPC)): 160 % of control | T/C (dose: 80.0 mg/kg/injection, schedule: Q04DX005 (ip), vehicle: Klucel (hydroxypropylcellulose) (HPC)): 188 % of control | T/C (dose: 100.0 mg/kg/injection, schedule: Q04DX005 (ip), vehicle: Klucel (hydroxypropylcellulose) (HPC)): 112 % of control | T/C (dose: 160.0 mg/kg/injection, schedule: Q04DX005 (ip), vehicle: Klucel (hydroxypropylcellulose) (HPC)): 104 % of control | T/C (dose: 200.0 mg/kg/injection, schedule: Q04DX005 (ip), vehicle: Klucel (hydroxypropylcellulose) (HPC)): 119 % of control | T/C (dose: 400.0 mg/kg/injection, schedule: Q04DX005 (ip), vehicle: Klucel (hydroxypropylcellulose) (HPC)): 123 % of control

COC1N(C2CC(O)C(CO)O2)C(=O)NC(=O)C1(F)Br (stereo not drawn)
T/C (dose: 25.0 mg/kg/injection, schedule: Q04DX004 (ip), vehicle: saline): 110 % of control | T/C (dose: 50.0 mg/kg/injection, schedule: Q04DX004 (ip), vehicle: saline): 115 % of control | T/C (dose: 100.0 mg/kg/injection, schedule: Q04DX004 (ip), vehicle: saline): 116 % of control | T/C (dose: 400.0 mg/kg/injection, schedule: Q04DX004 (ip), vehicle: saline): 124 % of control

CC[N+](CC)(CC)CC
T/C (dose: 10.8 mg/kg/injection, schedule: Q04DX005 (ip), vehicle: saline with Tween-80): 172 % of control

CC(/C=N/N=C(N)N)=N\N=C(N)N
T/C (dose: 32.4 mg/kg/injection, schedule: Q04DX005 (ip), vehicle: saline): 110 % of control | T/C (dose: 54.0 mg/kg/injection, schedule: Q04DX005 (ip), vehicle: saline): 96 % of control | T/C (dose: 90.0 mg/kg/injection, schedule: Q04DX005 (ip), vehicle: saline): 110 % of control

CCC1(O)CC2CN(CCc3c([nH]c4ccccc34)C(C(=O)OC)(c3cc4c(cc3OC)N(C)C3C(O)(C(N)=O)C(O)C5(CC)C=CCN6CCC43C65)C2)C1 (stereo not drawn) (tested in a mixture with another compound)
T/C [1]: 208 % of control | T/C [2]: 208 % of control

CN(Cc1cnc2nc(N)nc(N)c2n1)c1ccc(C(=O)N[C@@H](CCC(=O)O)C(=O)O)cc1
T/C (dose: 1.7 mg/kg/injection, schedule: Q01DX009 (ip), vehicle: sodium bicarbonate): 93 % of control | T/C (dose: 2.0 mg/kg/injection, schedule: Q04DX005 (ip), vehicle: sodium bicarbonate): 108 % of control | T/C (dose: 2.6 mg/kg/injection, schedule: Q01DX009 (ip), vehicle: sodium bicarbonate): 101 % of control | T/C (dose: 4.0 mg/kg/injection, schedule: Q04DX005 (ip), vehicle: sodium bicarbonate): 101 % of control | T/C (dose: 8.0 mg/kg/injection, schedule: Q04DX005 (ip), vehicle: sodium bicarbonate): 112 % of control

CSC1SCC2C(=O)N(C)C(C(C)C)C(=O)OCC(NC(=O)c3cnc4ccccc4n3)C(=O)NC(C)C(=O)N(C)C1C(=O)N(C)C(C(C)C)C(=O)OCC(NC(=O)c1cnc3ccccc3n1)C(=O)NC(C)C(=O)N2C (stereo not drawn)
T/C (dose: 25.0 micrograms/kg/injection, schedule: Q01DX009 (ip), vehicle: saline with Tween-80): 157 % of control | T/C (dose: 50.0 micrograms/kg/injection, schedule: Q01DX009 (ip), vehicle: saline with Tween-80): 177 % of control | T/C (dose: 100.0 micrograms/kg/injection, schedule: Q01DX009 (ip), vehicle: saline with Tween-80): 201 % of control

Cc1c(N)nc([C@H](CC(N)=O)NC[C@H](N)C(N)=O)nc1C(=O)N[C@H](C(=O)N[C@H](C)[C@@H](O)[C@H](C)C(=O)N[C@H](C(=O)NCCc1nc(-c2nc(C(=O)NCCC[S+](C)C)cs2)cs1)[C@@H](C)O)C(OC1OC(CO)C(O)C(O)C1OC1OC(CO)C(O)C(OC(N)=O)C1O)c1cnc[nH]1 (stereo partly drawn)
T/C (dose: 4.0 mg/kg/injection, schedule: Q04DX004 (ip), vehicle: saline): 113 % of control | T/C (dose: 8.0 mg/kg/injection, schedule: Q04DX004 (ip), vehicle: saline): 101 % of control | T/C (dose: 16.0 mg/kg/injection, schedule: Q04DX004 (ip), vehicle: saline): 117 % of control | T/C (dose: 32.0 mg/kg/injection, schedule: Q04DX004 (ip), vehicle: saline): 116 % of control

COC1CC2C=C(C)/C=C/C=C/C(=O)NC(c3ccccc3)C/C=C/CCC(O)CC(=O)C2=C1O (stereo not drawn)
T/C (dose: 1.56 mg/kg/injection, schedule: Q01DX009 (ip), vehicle: Klucel (hydroxypropylcellulose) (HPC)): 115 % of control

COc1cc2c(cc1OC)C1C(=O)c3ccc4c(c3OC1CO2)CC(C(C)(O)CO)O4 (stereo not drawn)
T/C (dose: 2.0 mg/kg/injection, schedule: Q01DX009 (ip), vehicle: DMSO): 110 % of control | T/C (dose: 4.0 mg/kg/injection, schedule: Q01DX009 (ip), vehicle: DMSO): 96 % of control | T/C (dose: 8.0 mg/kg/injection, schedule: Q01DX009 (ip), vehicle: DMSO): 99 % of control

COC1CC(C)C(OC)C2=CC(=O)C=C(NC(=O)/C(C)=C/C=C\C(C)C(OC(N)=O)/C(C)=C\C(C)C1OC)C2=O (stereo not drawn)
T/C (dose: 6.25 mg/kg/injection, schedule: Q04DX004 (ip), vehicle: saline + Tween-80 + alcohol): 124 % of control | T/C (dose: 12.5 mg/kg/injection, schedule: Q04DX004 (ip), vehicle: saline + Tween-80 + alcohol): 124 % of control

N[C@H](C(=O)O)[C@@H]1CC(Cl)=NO1
T/C (dose: 15.0 mg/kg/injection, schedule: Q04DX005 (ip), vehicle: saline): 113 % of control | T/C (dose: 60.0 mg/kg/injection, schedule: Q04DX005 (ip), vehicle: saline): 160 % of control | T/C (dose: 120.0 mg/kg/injection, schedule: Q04DX005 (ip), vehicle: saline): 195 % of control and 160 % of control

O=C1c2c(O)ccc(O)c2C(=O)c2c(NCCNCCO)ccc(NCCNCCO)c21
T/C (dose: 0.25 mg/kg/injection, schedule: Q04DX004 (ip), vehicle: water): 236 % of control | T/C (dose: 0.5 mg/kg/injection, schedule: Q04DX004 (ip), vehicle: water): 260 % of control | T/C [1]: 401 % of control | T/C (dose: 1.0 mg/kg/injection, schedule: Q04DX004 (ip), vehicle: water): 260 % of control | T/C [2]: 321 % of control | T/C (dose: 2.0 mg/kg/injection, schedule: Q04DX004 (ip), vehicle: water): 260 % of control | T/C (dose: 2.0 mg/kg/injection, schedule: Q04DX005 (ip), vehicle: saline): 99 % of control | T/C (dose: 4.0 mg/kg/injection, schedule: Q04DX004 (ip), vehicle: water): 100 % of control

CCC(O)CC1OC2(CCC1C)CC1OC(=O)/C=C\C(C)(O)C(O)C(C)C(O)C(OC3CC(OC)C(O)C(C)O3)C(O)C(C)(O)CCC/C=C/C3CC(C)COC3(O)CC(O2)C1C (stereo not drawn)
T/C (dose: 0.25 mg/kg/injection, schedule: Q01DX009 (ip), vehicle: saline + alcohol): 105 % of control | T/C (dose: 0.5 mg/kg/injection, schedule: Q01DX009 (ip), vehicle: saline + alcohol): 113 % of control | T/C (dose: 1.0 mg/kg/injection, schedule: Q01DX009 (ip), vehicle: saline + alcohol): 104 % of control | T/C (dose: 2.0 mg/kg/injection, schedule: Q01DX009 (ip), vehicle: saline + alcohol): 111 % of control

CC[C@]1(O)C[C@H]2CN(CCc3c([nH]c4ccccc34)[C@@](C(=O)OC)(c3cc4c(cc3OC)N(C)[C@H]3[C@@](O)(C(=O)OC)[C@H](OC(C)=O)[C@]5(CC)C=CCN6CC[C@]43[C@@H]65)C2)C1
T/C (dose: 0.38 mg/kg/injection, schedule: Q04DX005 (ip), vehicle: saline): 180 % of control | T/C (dose: 0.75 mg/kg/injection, schedule: Q04DX005 (ip), vehicle: saline): 293 % of control | T/C (dose: 1.5 mg/kg/injection, schedule: Q04DX005 (ip), vehicle: saline): 202 % of control and 401 % of control | T/C (dose: 3.0 mg/kg/injection, schedule: Q04DX005 (ip), vehicle: saline): 401 % of control and 160 % of control

CC(=O)N(C)O
T/C (dose: 37.0 mg/kg/injection, schedule: Q04DX004 (ip), vehicle: saline with Tween-80): 99 % of control | T/C (dose: 75.0 mg/kg/injection, schedule: Q04DX004 (ip), vehicle: saline with Tween-80): 107 % of control | T/C (dose: 150.0 mg/kg/injection, schedule: Q04DX004 (ip), vehicle: saline with Tween-80): 107 % of control | T/C (dose: 300.0 mg/kg/injection, schedule: Q04DX004 (ip), vehicle: saline with Tween-80): 113 % of control | T/C (dose: 600.0 mg/kg/injection, schedule: Q04DX004 (ip), vehicle: saline with Tween-80): 103 % of control
